Marks after values point to notes of the source that are not given here.
Tests used:
[1] = test system: hypercholesterolemic rat model; experiment: Hypocholesterolemic effects of R-P-P-R, K-P-P, L-arginine and Ezetimib in Fisher F344 rats (Example 6); format: in vivo; details: for Effect on non-HDL cholesterol (VLDL-cholesterol+LDL-cholesterol) as compared to the control group / Effect on plasma HDL-cholesterol as compared to the control group / Effect on plasma total cholesterol as compared to the control group: in words, 8 days orally, 100 mg/kg BW (Ezetimib 1 mg/kg BW); for HDL cholesterol (plasma) / Total cholesterol (plasma) / non HDL cholesterol (plasma): male F344 rats on atherogenic diet, orally for 8 days, peptides and L-arginine 100 mg/kg BW, Ezetimib 1 mg/kg BW, mean ± SD; for non HDL cholesterol (plasma): difference between total and HDL cholesterol
Description: In this experiment the effects of the chemically synthesized peptides R-P-P-R and K-P-P, the free amino acid L-arginine and the potent and selective cholesterol absorption inhibitor Ezetimib (Ezetrol, MSD Germany) were tested on plasma cholesterol levels in the hypercholesterolemic rat model.
Male Fisher rats (F344) from Charles River (Sulzfeld, Germany), weighing 65-96 g were housed individually with free access to water and feed, with an alternating 12-hour light-dark cycle. The animals were fed a rodent atherogenic diet high in cholesterol and fat similar to the procedure described in Example 5. After 2 weeks of adaptation to the diet the rats were randomized according to body weight into five experimental groups of 10 animals each. The five groups were treated orally every morning for 8 days with either water (control group) or with R-P-P-R, K-P-P and L-arginine at a dose of 100 mg/kg body weight (BW) or with Ezetimib at a dose of 1 mg/kg BW while continuing the aetherogenic diet. There was no difference in feed consumption over the whole experiment. The day before the last administration, all animals were dosed orally in the evening and deprived of food for the last 6 hours but allowed free access to water. At day 8 the fasted rats were treated again orally in the morning and after two hours the animals were sacrificed by withdrawing blood from the vena Cava under Isoflurane anesthesia. Blood was collected into tubes containing EDTA as an anticoagulant. Plasma was prepared from the blood by immediate centrifugation at 1600 g for 10 minutes at 4° C. Assays of plasma cholesterol and HDL-cholesterol (precipitation method) were determined enzymatically on a Hitachi 912 automatic analyzer (Roche Diagnostica, Switzerland). Non-HDL cholesterol was calculated by difference between total cholesterol and HDL cholesterol. All data are expressed as means±standard deviation (SD) for animals in each diet group, with n being the number of rats.

[2] = test system: hypercholesterolemic rat model; experiment: Hypocholesterolemic effects of peptide R-P-P-R-S in Fisher F344 rats (Example 5); format: in vivo; details: male F344 rats on atherogenic diet, 100 mg/kg BW orally for 7 days, mean ± SD
Description: In this experiment the effects of the chemically synthesized […] R-P-P-R-S was tested on plasma cholesterol levels in the hypercholesterolemic rat model.
In short male Fisher rats (F344) from Charles River (Sulzfeld, Germany), weighing 65-96 g were housed individually with free access to water and feed, with an alternating 12-hour light-dark cycle. The animals were fed a rodent atherogenic diet high in cholesterol and fat for the 2 weeks preceding the treatment. The macro-nutrient composition of the diet was as follows (g/100 g anhydrous mix): protein 20.8; fiber 4.2; fat 15; carbohydrate 48. The diet also contained 1.25 wt % cholesterol, 0.5 wt % sodium cholate and a standard vitamin and mineral mix, prepared according to rat nutritional requirements. The main fats consisted of cacoa butter (7.5 wt %) and soja oil (4.35 wt %). After 2 weeks of adaptation to the diet the rats were randomized according to body weight into two experimental groups of 10 animals. The two groups were treated orally every morning for 7 days with either water (control group) or peptide R-P-P-R-S, at a dose of 100 mg/kg body weight (BW) while continuing the aetherogenic diet. There was no difference in feed consumption over the whole experiment. The day before the last administration, all animals were dosed orally in the evening and deprived of food overnight (14 hours) but allowed free access to water. At day 7 the fasted rats were treated again orally in the morning and after two hours the animals were sacrificed by withdrawing blood from the vena Cava under Isoflurane anesthesia. Blood was collected into tubes containing EDTA as an anticoagulant. […] Assays of plasma cholesterol and HDL-cholesterol (precipitation method) were determined enzymatically on a Hitachi 912 automatic analyzer (Roche Diagnostica, Switzerland). Non-HDL cholesterol was calculated by difference between total cholesterol and HDL cholesterol. […] All data are expressed as means±standard deviation (SD) for animals in each diet group, with n being the number of rats. […]

Compound	Effect on non-HDL cholesterol (VLDL-cholesterol+LDL-cholesterol) as compared to the control group [1]	Effect on plasma HDL-cholesterol as compared to the control group [1]	Effect on plasma total cholesterol as compared to the control group [1]	HDL cholesterol (plasma) [1] [mmol/L]	Total cholesterol (plasma) [1] [mmol/L]	non HDL cholesterol (plasma) [1] [mmol/L]	HDL cholesterol (plasma) ([2]; fasted, 2 h after last dose)	Total cholesterol (plasma) ([2]; fasted, 2 h after last dose)	non HDL cholesterol (plasma) ([2]; difference between total and HDL cholesterol)
K-P-P [KPP]	tended to lowered	significantly increased	tended to lowered	0.37 ± 0.04	6.82 ± 1.42	6.45 ± 1.44	–	–	–
N=C(N)NCCC[C@H](N)C(=O)O [L-arginine, reference compound]	had no effect	had no effect	had no effect	0.33 ± 0.05	7.66 ± 1.08	7.32 ± 1.08	–	–	–
R-P-P-R-S (RPPRS) [chemically synthesized peptide Arg-Pro-Pro-Arg-Ser]	–	–	–	–	–	–	0.36 ± 0.10^b mmol/L	2.9 ± 0.4^b mmol/L	2.5 ± 0.5^b mmol/L
R-P-P-R (RPPR) [chemically synthesized peptide Arg-Pro-Pro-Arg]	significantly lowered	tended to increase	significantly lowered	0.35 ± 0.04	5.28 ± 0.81	4.94 ± 0.81	–	–	–
O=C1[C@H](CC[C@H](O)c2ccc(F)cc2)[C@@H](c2ccc(O)cc2)N1c1ccc(F)cc1 [Ezetimib, reference compound]	prominent effects	prominent effects	prominent effects	0.51 ± 0.06	4.70 ± 0.93	4.19 ± 0.90	–	–	–

— patent US20100113368A1, “CHOLESTEROL LOWERING PROTEIN HYDROLYSATES” (priority 2007, published 2010)
